According to US5225420A, “Use of tetrahydrothienopyridine derivatives as angiogenesis inhibitors” (Elf-Sanofi, priority 1991, dated 1993):
Like-named read-outs stand apart in the source and are kept apart here.

Experiments:
[1] = test system: bovine cerebral cortex capillary endothelial cells; assay: Inhibition of rb-FGF-stimulated capillary endothelial cell proliferation (in vitro test); assay type: cell-based; conditions: 1 ng/ml rb-FGF, cell counting 5 days after addition of test product, read-out: IC50 (50% inhibition of cell proliferation)
Description: A nutrient medium (Dulbecco's modified Eagle medium-DMEM), supplemented with fetal calf serum (concentration: 5% V/V) and containing glutamine (4 mM), penicillin (100 U/ml) and streptomycin sulphate (100 μg/ml), is introduced into 1-ml wells and innoculated with bovine cerebral cortex capillary endothelial cells (20×10^3 cells/ml), isolated and cultured as described by D. Gospodarowicz et al. in J. Cell. Physiol. 127, p. 121-136 (1986).
As soon as cell adhesion has taken place, 1 ng/ml of recombinant bovine basic fibroblast growth factor (rb-FGF), marketed by Amersham, a known factor for the stimulation of angiogenesis in vivo, is added, followed by the test solutions.
Cell counting is performed 5 days after the addition of 20 μl of a solution of the test products in dimethyl sulphoxide such that their final concentration in the medium is between 10^-4 and 10^-8 M; the control wells receive 20 μl of solvent.
From the results obtained for several concentrations of each of the test products, the concentration at which the latter produce a 50% inhibition of cell proliferation is calculated in a conventional manner.

[2] = test system: angiogenic response induced by fibrin gels; conditions: rat
Description: (§1) Perforated Plexiglas chambers containing a fibrin gel, obtained by polymerisation of rat fibrinogen in the presence of thrombin, are implanted subcutaneously in rats.
The test products, suspended in absolute alcohol and 5% gum arabic (10 ml/kg), are administered orally to the rats at doses of 5 and 25 mg/kg/day for the compounds of Examples 3 and 4, for 5 days before implantation and up to the time of removal of the chambers. After 14 days, a granulation outgrowth is formed, and the chambers are removed in order to observe the height of the granulation outgrowth anchored in the matrix and the quantity of newly-formed vessels which have appeared.
(§2) The inhibition of the angiogenic response was evaluated by:
(§3) (i) the height and diameter of the granulation outgrowths,
(§4) (ii) the number of newly-formed vessels per outgrowth and their localisation,
(§5) (iii) the quality of the granulation tissue.

[3] = test system: angiogenic response induced by fibrin gels; conditions: rat, treatment begun after 14 days
Description: as §1, §2, §3, §4, §5

[4] = test system: platelet aggregation; conditions: described in EP-A-0 281,459; cited from earlier work
[5] = Bos taurus, Endothelial cell, 120 h

Compound | IC50 [1, 5] [µM] | IC50 [1] [µM] | effectiveness on height of granulation outgrowths ([2]; 5 mg/kg/day oral) | inhibition of height of the granulation outgrowths ([2]; 25 mg/kg/day oral) [%] | lowering of number of newly-formed vessels per outgrowth ([2]; 25 mg/kg/day oral) [%] | also measured
O=C(O)C(c1ccccc1Cl)N1CCc2sccc2C1 (single isomer, unassigned) [Compound 1] | 0.6 | – | – | – | – | –
COC(=O)C(c1ccccc1Cl)N1CCc2sccc2C1 (single isomer, unassigned) [Compound 3] | – | 0.0008 | remains effective | 50 | 90 | angiogenesis-inhibiting activity ([2]; 5 mg/kg/day oral): still very active; inhibition of height of the granulation outgrowths ([2]; 5 mg/kg/day oral): 50%; lowering of number of newly-formed vessels per outgrowth ([2]; 5 mg/kg/day oral): 50%; angiogenesis-inhibiting activity (comparison with compound No. 4) ([2]; 25 mg/kg/day oral): markedly more active than its homologue, the compound No. 4; quality of the granulation tissue ([2]; oral, dose not given): more loose-textured and disorganised; activity on regression of angiogenesis ([3]; 5 mg/kg/day): still very active; activity on regression of angiogenesis (comparison with compound No. 4) ([3]; 25 mg/kg/day): markedly more active than its homologue, the compound No. 4
COC(=O)C(c1ccccc1Cl)N1CCc2sccc2C1 (single isomer, unassigned) [Compound 4, laevorotatory isomer of methyl alpha-(4,5,6,7-tetrahydrothieno[3,2-c]pyrid-5-yl)-alpha-(2-chlorophenyl)acetate] | – | 0.0037 | in contrast to the latter compound | 30 | 60 | platelet aggregation inhibition [4]: inactive
COC(=O)C(c1ccccc1Cl)N1CCc2sccc2C1 (centres unmarked) [Compound 2] | 0.0023 | – | – | – | – | –
CCOC(=O)C(c1ccccc1Cl)N1CCc2sccc2C1 (centres unmarked) [Compound 5] | 0.07 | – | – | – | – | –
CCCCOC(=O)C(c1ccccc1Cl)N1CCc2sccc2C1 (centres unmarked) [Compound 6] | 0.22 | – | – | – | – | –
